Experimental data taken from patent US20100267638A1, “EXOSITE-DIRECTED THROMBIN INHIBITORS” (CLEVELAND STATE UNIVERSITY, priority 2003, published 2010).
No end group written: not given here.

Experiment: Clotting time as a function of peptide concentration (FIG. 12)
Details: peptide 500 nM
From the text: FIG. 12 is a graph illustrating clotting time as a function of concentration of various peptides of interest as follows: DYDYQ (SEQ ID NO. 11) (filled squares); DYDYQ (1, 2) (or as designated in shorthand form, D5Q1,2) (SEQ ID NO. 9) (filled triangles); DYDYQ-1 (SEQ ID NO. 7) (filled inverted triangles); and DYDYQ-2 (SEQ ID NO. 8) (filled diamonds).

Substance: DYDYQ [DYDYQ, Asp-Tyr-Asp-Tyr-Gln]
- clotting time: relatively long clotting times
